Assay results as given in patent US10633419B2, “Immunomodulators” (BRISTOL-MYERS SQUIBB COMPANY, priority 2014, dated 2020).
Positions of bridges follow the written chain, without caps; N, C: chain ends. Non-standard residues stand in square brackets, D forms with d. Residues, ends and D or L forms follow the SMILES beside them. *: point of attachment. X6 = O=C(O)CCCCCCCCCCCCCCCCC(=O)N[C@@H](CCC(=O)NCCCOCCOCCOCCCN*)C(=O)O; Trp(1-CH2COOH) = N[C@@H](Cc1cn(CC(=O)O)c2ccccc12)C(=O)O; Phe(3,4,5-F3) = N[C@@H](Cc1cc(F)c(F)c(F)c1)C(=O)O; d(cisHyp) = O=C(O)[C@H]1C[C@@H](O)CN1; Palmitoyl = CCCCCCCCCCCCCCCC(=O)*; Hyp = O=C(O)[C@@H]1C[C@@H](O)CN1; NMeF = CN[C@@H](Cc1ccccc1)C(=O)O; NHtetradecyl = CCCCCCCCCCCCCCN*; NMeNle = CCCC[C@H](NC)C(=O)O; Tle = CC(C)(C)[C@H](N)C(=O)O; NMeA = CN[C@@H](C)C(=O)O; Pra = C#CC[C@H](N)C(=O)O; Dab = NCC[C@H](N)C(=O)O; Dap = NC[C@H](N)C(=O)O

Each molecule was assayed against T1, PD-L1 (Homo sapiens, UniProt Q9NZQ7) (assay: PD-1/PD-L1 Homogenous Time-Resolved Fluorescence (HTRF) binding assay (PD-1-Ig/PD-L1-His)). Details: inhibition of PD-1-Ig binding to PD-L1-TVMV-His; value given as range class; read-out: HTRF IC50.
T1 construct: hPDL1(19-239)-TVMV-His; made in house; host or cells: HEK293T
Summary of the method: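 Inhibitors pre-incubated 15 min with PD-L1-His (10 nM final), then PD-1-Ig (20 nM final) added for 15 min in dPBS/0.1% BSA/0.05% Tween-20. Eu-cryptate anti-Ig (1 nM) and APC anti-His (20 nM) added, 30 min equilibration, 665/620 nm HTRF ratio read.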

T1 sequence (Q9NZQ7 with tags, fused parts or gaps): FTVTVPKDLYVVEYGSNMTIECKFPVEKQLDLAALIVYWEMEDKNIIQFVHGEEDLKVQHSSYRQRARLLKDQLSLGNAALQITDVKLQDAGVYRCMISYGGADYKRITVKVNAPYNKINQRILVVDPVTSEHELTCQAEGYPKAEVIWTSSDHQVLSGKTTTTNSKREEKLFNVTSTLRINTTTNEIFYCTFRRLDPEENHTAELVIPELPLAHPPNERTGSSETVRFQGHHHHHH

`CCCCCCCCCCCCCCCC(=O)NCCCC[C@H](NC(=O)CNC(=O)[C@@H]1CSCC(=O)N[C@@H](Cc2ccc(O)cc2)C(=O)N(C)[C@@H](C)C(=O)N[C@@H](CC(N)=O)C(=O)N2CCC[C@H]2C(=O)N[C@@H](CCN)C(=O)N[C@@H](CC(C)C)C(=O)N2C[C@H](O)C[C@H]2C(=O)N[C@@H](Cc2c[nH]c3ccccc23)C(=O)N[C@@H](CO)C(=O)N[C@@H](Cc2c[nH]c3ccccc23)C(=O)N(C)[C@@H](CCCC)C(=O)N(C)[C@@H](CCCC)C(=O)N[C@@H](CCCNC(=N)N)C(=O)N1)C(N)=O` [Example 11020] ({CH2CO}-Y[NMeA]NP[Dab]L[Hyp]WSW[NMeNle][NMeNle]RCGK(Palmitoyl)-NH2; thioether N-14) and `CCCCCCCCCCCCCCNC(=O)CNC(=O)CNC(=O)[C@@H]1CSCC(=O)N[C@@H](Cc2ccc(O)cc2)C(=O)N(C)[C@@H](C)C(=O)N[C@@H](CC(N)=O)C(=O)N2CCC[C@H]2C(=O)N[C@@H](CCN)C(=O)N[C@@H](CC(C)C)C(=O)N2C[C@H](O)C[C@H]2C(=O)N[C@@H](Cc2c[nH]c3ccccc23)C(=O)N[C@@H](C(C)(C)C)C(=O)N[C@@H](Cc2c[nH]c3ccccc23)C(=O)N(C)[C@@H](CCCC)C(=O)N(C)[C@@H](CCCC)C(=O)N[C@@H](CCCNC(=N)N)C(=O)N1` [Example 11107] ({CH2CO}-Y[NMeA]NP[Dab]L[Hyp]W[Tle]W[NMeNle][NMeNle]RCGG-NHtetradecyl; thioether N-14) fall in the same range of IC50: 100 to 1600 nM for the first, 100 to 1600 nM for the second.

`CCCCCCCCCCCCCCCC(=O)N[C@@H](CCn1cc(C[C@H](NC(=O)CNC(=O)[C@@H]2CSCC(=O)N[C@@H](Cc3ccc(O)cc3)C(=O)N(C)[C@@H](C)C(=O)N[C@@H](CC(=O)O)C(=O)N3CCC[C@H]3C(=O)N[C@@H](Cc3c[nH]cn3)C(=O)N[C@@H](CCCCN)C(=O)N3C[C@H](O)C[C@H]3C(=O)N[C@@H](Cc3c[nH]c4ccccc34)C(=O)N[C@@H](CCCCN)C(=O)N[C@@H](Cc3c[nH]c4ccccc34)C(=O)N(C)[C@@H](CCCC)C(=O)N(C)[C@@H](CCCC)C(=O)N[C@@H](CCC(=O)O)C(=O)N2)C(=O)N[C@@H](CC(=O)O)C(N)=O)nn1)C(=O)O` [Example 14061] and `CCCCCCCCCCCCCCCC(=O)N[C@@H](CCn1cc(C[C@H](NC(=O)CNC(=O)[C@@H]2CSCC(=O)N[C@@H](Cc3ccc(O)cc3)C(=O)N(C)[C@@H](C)C(=O)N[C@@H](CC(=O)O)C(=O)N3CCC[C@H]3C(=O)N[C@@H](Cc3c[nH]cn3)C(=O)N[C@@H](CCCCN)C(=O)N3C[C@H](O)C[C@H]3C(=O)N[C@@H](Cc3c[nH]c4ccccc34)C(=O)N[C@@H](CCCCN)C(=O)N[C@@H](Cc3c[nH]c4ccccc34)C(=O)N(C)[C@@H](CCCC)C(=O)N(C)[C@@H](CCCC)C(=O)N[C@@H](CCC(=O)O)C(=O)N2)C(=O)NCC(N)=O)nn1)C(=O)O` [Example 14059] fall in the same range of IC50: 10 to 99 nM for the first, 10 to 99 nM for the second.

`CCCC[C@H]1C(=O)N(C)[C@@H](CCCC)C(=O)N[C@@H](CC(C)C)C(=O)N[C@H](C(=O)NCC(=O)N[C@@H](CC(=O)NCCCOCCOCCOCCCNC(=O)CC[C@H](NC(=O)CCCCCCCCCCCCCCCCC(=O)O)C(=O)O)C(=O)O)CSCC(=O)N[C@@H](Cc2ccc(O)cc2)C(=O)N(C)[C@@H](C)C(=O)N[C@@H](CC(=O)O)C(=O)N2CCC[C@H]2C(=O)N[C@@H](CN)C(=O)N[C@@H](CCC(=O)O)C(=O)N2C[C@H](O)C[C@H]2C(=O)N[C@@H](Cc2c[nH]c3ccccc23)C(=O)N[C@@H](CCN)C(=O)N[C@@H](Cc2cn(CC(=O)O)c3ccccc23)C(=O)N1C` [Example 11178] ({CH2CO}-Y[NMeA]DP[Dap]E[Hyp]W[Dab][Trp(1-CH2COOH)][NMeNle][NMeNle]LCGD(X6)-OH; thioether N-14) and `C#CC[C@H](NC(=O)CNC(=O)[C@@H]1CSCC(=O)N[C@@H](Cc2ccc(O)cc2)C(=O)N(C)[C@@H](C)C(=O)N[C@@H](CC(=O)O)C(=O)N2CCC[C@H]2C(=O)N[C@@H](Cc2c[nH]cn2)C(=O)N[C@@H](CCC(N)=O)C(=O)N2C[C@H](O)C[C@H]2C(=O)N[C@@H](Cc2c[nH]c3ccccc23)C(=O)N[C@@H](CO)C(=O)N[C@@H](Cc2c[nH]c3ccccc23)C(=O)N(C)[C@@H](CCCC)C(=O)N(C)[C@@H](CCCC)C(=O)N[C@@H](CCC(=O)O)C(=O)N1)C(=O)NCC(N)=O` [INT 1400C] ({CH2CO}-Y[NMeA]DPHQ[Hyp]WSW[NMeNle][NMeNle]ECG[Pra]G-NH2; thioether N-14) fall in the same range of IC50: 0.3 to 9.9 nM for the first, 0.3 to 9.9 nM for the second.

Molecule `C#CC[C@H](NC(=O)CNC(=O)[C@@H]1CSCC(=O)N[C@@H](Cc2cc(F)c(F)c(F)c2)C(=O)N(C)[C@@H](Cc2ccccc2)C(=O)N(C)[C@@H](CCCC)C(=O)N2C[C@H](O)C[C@@H]2C(=O)N[C@@H](CC(=O)O)C(=O)N[C@@H](C(C)C)C(=O)N(C)[C@@H](Cc2ccccc2)C(=O)N[C@@H](CC(=O)O)C(=O)N2CCC[C@@H]2C(=O)N[C@@H](Cc2c[nH]c3ccccc23)C(=O)N[C@@H](Cc2ccc(O)cc2)C(=O)N[C@@H](CC(C)C)C(=O)N1)C(N)=O` [INT 1400L, ClAc-F3Phe-mPhe-mNle-dHyp-Asp-Val-mPhe-Asp-dPro-Trp-Tyr-Leu-Cys-Gly-[(S)-propargylglycine]] ({CH2CO}-[Phe(3,4,5-F3)][NMeF][NMeNle][d(cisHyp)]DV[NMeF]D[dP]WYLCG[Pra]-NH2; thioether N-13) has an IC50 of 10 to 99 nM.
